Laboratory results taken from paper PMC5669110 (Pharmacognosy Magazine, 2017).
Blank lines part the entries; values can stand above or below the molecule they belong to.

Assays:
Assay in all cases: fluorogenic HDAC8 inhibitor screening kit
Type in all cases: biochemical
[1] = target: T1, HDAC8 (histone deacetylase family member 8) (Homo sapiens, UniProt Q9BY41); settings: read-out: % inhibition at 60.75 μM
T1 sequence (Q9BY41 1-377): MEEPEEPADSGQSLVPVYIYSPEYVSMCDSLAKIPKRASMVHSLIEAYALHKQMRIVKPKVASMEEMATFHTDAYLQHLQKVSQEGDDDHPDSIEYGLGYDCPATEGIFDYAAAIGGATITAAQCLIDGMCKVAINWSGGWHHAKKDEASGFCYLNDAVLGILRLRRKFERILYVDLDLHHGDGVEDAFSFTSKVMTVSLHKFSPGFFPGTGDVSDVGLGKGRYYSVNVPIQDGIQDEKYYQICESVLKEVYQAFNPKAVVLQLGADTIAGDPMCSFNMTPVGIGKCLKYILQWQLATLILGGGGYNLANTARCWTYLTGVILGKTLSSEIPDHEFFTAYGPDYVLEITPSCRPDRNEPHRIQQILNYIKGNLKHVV

[2] = target: T1, HDAC8 (histone deacetylase family member 8); settings: read-out: % inhibition at 310.25 μM
[3] = target: T1, HDAC8 (histone deacetylase family member 8); settings: read-out: % inhibition at 24.2 μM

inhibition at 60.75 µM [1]: 9.3%
SMILES: O=C(O)/C=C/c1ccccc1 [CA, Cinnamic acid]

SMILES: O=C/C=C/c1ccccc1 [CAL, Cinnamaldehyde]
inhibition at 310.25 µM [2]: 18.5%

inhibition at 24.2 µM [3]: 5.7%
SMILES: OCC=Cc1ccccc1 [CALC, Cinnamyl alcohol]
